1 compound from ChEMBL document CHEMBL4152373 (Bioorg Med Chem, 2018) can be followed below.

The source made the active and inactive calls. The calls are words filed in the database; no cut-off is given here.

Data set [1] in a line: Octanol-PBS buffer partition coefficient, log D of the compound at pH 7.4 by HPLC method.
Data set [2] in a line: Fraction unbound in rat plasma at 5 uM after 4 hrs by equilibrium dialysis method. (In equilibrium dialysis free small molecules cross a membrane that holds back macromolecules.)
A short description of data set [3]: Fraction unbound in mouse plasma at 5 uM after 4 hrs by equilibrium dialysis method.
Data set [4] can be described thus: Half life in Sprague-Dawley rat at 1 mg/kg, iv administered as single dose by LC-MS/MS analysis. It counts as ADME, organism-based. As to conditions: in vivo.
Data set [5] can be described thus: Oral bioavailability in Sprague-Dawley rat at 3 mg/kg administered via gavage as single dose by LC-MS/MS analysis. As to conditions: in vivo. It counts as ADME, organism-based.
For another data set, the system named is Rattus norvegicus. Description: Dose normalized unbound AUC in Sprague-Dawley rat at 3 mg/kg, po administered via gavage as single dose by LC-MS/MS analysis. The format is ADME, organism-based. As to conditions: in vivo.
In a further data set the test system is Mus musculus. Description: Antidiabetic activity in FFA2R knock-out C57Bl/6J mouse assessed as inhibition of blood glucose AUC (0 to 120 mins) at […], po treated prior to glucose challenge by OGTT. It counts as functional, organism-based.
The target in data set [6] is T1, Free fatty acid receptor 4 (Homo sapiens) (UniProt Q5NUL3).
T1 sequence (whole entry): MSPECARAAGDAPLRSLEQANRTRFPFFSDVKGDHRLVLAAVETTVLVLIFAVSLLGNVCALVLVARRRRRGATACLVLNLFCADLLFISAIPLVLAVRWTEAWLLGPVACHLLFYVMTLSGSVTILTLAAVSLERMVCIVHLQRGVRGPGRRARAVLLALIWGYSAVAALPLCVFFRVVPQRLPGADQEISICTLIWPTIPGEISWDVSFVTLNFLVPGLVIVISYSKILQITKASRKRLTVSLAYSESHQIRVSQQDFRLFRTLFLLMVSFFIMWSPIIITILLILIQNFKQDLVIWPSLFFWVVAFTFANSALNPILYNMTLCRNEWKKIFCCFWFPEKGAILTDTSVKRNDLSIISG
Description: Antagonist activity at FFA4R (unknown origin) at 10 uM by aequorin based assay relative to control. It counts as functional.

Data set [7] addresses T2, Glucose-dependent insulinotropic receptor (Homo sapiens) (UniProt Q8TDV5).
T2 sequence (whole entry): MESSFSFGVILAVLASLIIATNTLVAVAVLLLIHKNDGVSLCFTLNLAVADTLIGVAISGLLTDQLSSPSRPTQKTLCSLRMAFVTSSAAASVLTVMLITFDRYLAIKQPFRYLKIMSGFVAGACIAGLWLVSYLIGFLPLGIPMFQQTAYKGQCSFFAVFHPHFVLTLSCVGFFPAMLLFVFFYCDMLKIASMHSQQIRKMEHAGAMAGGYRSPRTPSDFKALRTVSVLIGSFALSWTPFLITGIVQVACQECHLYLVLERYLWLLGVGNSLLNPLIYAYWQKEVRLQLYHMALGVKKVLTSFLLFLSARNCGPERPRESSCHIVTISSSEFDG
The data set is described as follows: Agonist activity at GPR119 (unknown origin) at 10 uM by cAMP accumulation based assay relative to control. It counts as functional.

The target in data set [8] is T2, Glucose-dependent insulinotropic receptor (Homo sapiens). Description: Antagonist activity at GPR119 (unknown origin) at 10 uM by cAMP accumulation based assay relative to control. It counts as functional. For orientation: Cyclic AMP is a second messenger, typically raised through Gs and lowered through Gi signalling.
Data set [9] deals with Hydroxycarboxylic acid receptor 2 (Homo sapiens) (UniProt Q8TDS4). The data set is described as follows: Agonist activity at GPR109a (unknown origin) at 10 uM by aequorin based assay relative to control. The format is functional.
Sequence of Hydroxycarboxylic acid receptor 2 (Homo sapiens) (Q8TDS4 whole entry): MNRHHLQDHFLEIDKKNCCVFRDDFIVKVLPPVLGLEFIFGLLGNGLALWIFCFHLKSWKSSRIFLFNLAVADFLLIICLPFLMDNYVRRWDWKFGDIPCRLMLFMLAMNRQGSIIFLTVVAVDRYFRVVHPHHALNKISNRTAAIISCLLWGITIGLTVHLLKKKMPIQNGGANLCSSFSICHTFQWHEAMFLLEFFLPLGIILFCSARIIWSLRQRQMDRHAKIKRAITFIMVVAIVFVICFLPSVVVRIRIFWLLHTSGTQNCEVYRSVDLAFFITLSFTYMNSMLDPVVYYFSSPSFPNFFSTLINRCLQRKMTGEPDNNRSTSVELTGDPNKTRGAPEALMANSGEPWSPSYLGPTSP
The target is the same in data set [10]. The data set is described as follows: Antagonist activity at GPR109a (unknown origin) at 10 uM by aequorin based assay relative to control. The format is functional.
In data set [11] the target is Hydroxycarboxylic acid receptor 3 (Homo sapiens) (UniProt P49019). Description: Antagonist activity at GPR109b (unknown origin) at 10 uM by aequorin based assay relative to control. The format is functional.
Sequence of Hydroxycarboxylic acid receptor 3 (Homo sapiens) (P49019 whole entry): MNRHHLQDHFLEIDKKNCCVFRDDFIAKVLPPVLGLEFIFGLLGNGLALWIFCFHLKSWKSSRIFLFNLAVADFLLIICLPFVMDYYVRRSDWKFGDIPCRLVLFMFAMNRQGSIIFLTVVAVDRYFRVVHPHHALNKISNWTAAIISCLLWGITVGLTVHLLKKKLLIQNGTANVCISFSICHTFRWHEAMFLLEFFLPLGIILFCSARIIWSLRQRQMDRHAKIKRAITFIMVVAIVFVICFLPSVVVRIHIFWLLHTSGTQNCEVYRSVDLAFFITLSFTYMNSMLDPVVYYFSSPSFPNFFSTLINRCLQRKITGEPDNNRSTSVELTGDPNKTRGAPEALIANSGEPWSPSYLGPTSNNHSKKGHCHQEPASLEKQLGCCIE
The target in data set [12] is T3, Free fatty acid receptor 3 (Homo sapiens) (UniProt O14843).
T3 sequence (whole entry): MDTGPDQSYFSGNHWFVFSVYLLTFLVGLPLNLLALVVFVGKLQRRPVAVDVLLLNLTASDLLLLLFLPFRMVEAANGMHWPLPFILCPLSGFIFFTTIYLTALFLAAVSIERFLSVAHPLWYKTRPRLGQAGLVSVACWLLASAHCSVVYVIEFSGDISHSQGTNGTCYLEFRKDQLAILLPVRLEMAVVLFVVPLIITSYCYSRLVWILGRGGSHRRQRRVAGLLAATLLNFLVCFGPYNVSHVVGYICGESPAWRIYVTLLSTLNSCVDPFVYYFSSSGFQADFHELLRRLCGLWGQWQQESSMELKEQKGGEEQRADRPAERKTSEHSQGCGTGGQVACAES
As to conditions: 10 uM.

The target in data set [13] is T4, Glucocorticoid receptor (Homo sapiens) (UniProt P04150).
T4 sequence (whole entry): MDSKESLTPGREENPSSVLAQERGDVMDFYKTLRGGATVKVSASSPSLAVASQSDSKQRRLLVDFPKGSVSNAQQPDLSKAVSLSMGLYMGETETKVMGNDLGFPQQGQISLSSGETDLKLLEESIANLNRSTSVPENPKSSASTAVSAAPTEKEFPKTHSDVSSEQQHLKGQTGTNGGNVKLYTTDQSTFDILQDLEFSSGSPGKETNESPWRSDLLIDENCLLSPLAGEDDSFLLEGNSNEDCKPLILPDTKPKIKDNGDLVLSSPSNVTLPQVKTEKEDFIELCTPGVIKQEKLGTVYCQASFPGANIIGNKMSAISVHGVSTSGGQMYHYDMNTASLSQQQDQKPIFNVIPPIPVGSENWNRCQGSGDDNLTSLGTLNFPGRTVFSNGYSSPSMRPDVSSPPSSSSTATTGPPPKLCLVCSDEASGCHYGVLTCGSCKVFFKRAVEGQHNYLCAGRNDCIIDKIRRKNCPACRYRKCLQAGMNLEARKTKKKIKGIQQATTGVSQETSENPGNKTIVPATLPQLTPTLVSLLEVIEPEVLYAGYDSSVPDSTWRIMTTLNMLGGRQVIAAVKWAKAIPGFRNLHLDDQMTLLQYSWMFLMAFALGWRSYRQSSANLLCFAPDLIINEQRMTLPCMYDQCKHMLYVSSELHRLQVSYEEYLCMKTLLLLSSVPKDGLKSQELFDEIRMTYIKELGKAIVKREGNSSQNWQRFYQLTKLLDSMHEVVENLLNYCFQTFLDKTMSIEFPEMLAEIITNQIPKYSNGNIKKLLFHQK
As to conditions: 10 uM.
Description: Antagonist activity at GCR (unknown origin) at 10 uM by cAMP accumulation based assay relative to control

Data set [14] has as its target Glucagon-like peptide 1 receptor (Homo sapiens) (UniProt P43220). As to conditions: 10 uM.
Description: Antagonist activity at GLP1R (unknown origin) at 10 uM by cAMP accumulation based assay relative to control

Sequence of Glucagon-like peptide 1 receptor (Homo sapiens) (P43220 whole entry): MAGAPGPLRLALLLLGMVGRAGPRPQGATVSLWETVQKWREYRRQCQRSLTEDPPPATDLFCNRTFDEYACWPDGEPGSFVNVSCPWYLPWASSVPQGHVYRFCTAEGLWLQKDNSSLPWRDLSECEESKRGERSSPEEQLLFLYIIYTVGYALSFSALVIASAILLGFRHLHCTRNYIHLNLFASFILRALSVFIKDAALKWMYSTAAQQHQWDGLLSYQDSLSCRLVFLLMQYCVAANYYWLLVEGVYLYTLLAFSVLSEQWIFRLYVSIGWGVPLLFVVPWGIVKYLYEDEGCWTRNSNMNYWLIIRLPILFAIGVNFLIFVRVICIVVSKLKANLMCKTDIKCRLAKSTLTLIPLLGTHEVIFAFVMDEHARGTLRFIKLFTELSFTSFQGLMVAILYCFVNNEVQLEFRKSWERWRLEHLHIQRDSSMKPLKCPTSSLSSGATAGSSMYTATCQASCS

As usually defined, the logD is lipophilicity at a set pH, counting ionised and neutral species. As a reminder, the fraction unbound is free concentration divided by total concentration. As a reminder, the half-life is how long it takes for the measured level to halve. Low readings indicate rapid decline, high ones slow decline. Broadly, the bioavailability is dose-corrected exposure relative to a reference, in per cent. The low end stands for poor availability, the high end for good availability. As usually defined, the inhibition is the relative decrease from the control value, in per cent. Consider `COc1ccc(-c2ccccc2-c2csc(N(C(=O)[C@@H](CC(=O)O)CC3CCCC3)C3CC3)n2)cn1`, for which the logD in [1] is 2.6. Besides, the fraction unbound at 4 h, 5 µM was found to be 0.0006 in data set [2] and 0.0023 in [3]. Also, the half-life in [4] stood at 4 h. Also, the bioavailability in [5] stood at 47%. The fAUC/dose with Rattus norvegicus stood at 0.29 µM·min. Also, in the data set on Mus musculus, the inhibition result was “Active”. The inhibition in data set [6] is 16%; in [8], less than 10%; in [10], less than 10%; in [11], 22%; in data set [12], less than 10%; in data set [13], less than 10%. For the same compound, the inhibition in data set [14] is less than 10%. For the same compound, the Activity in data set [7] and in data set [9] was less than 10% throughout.
